Data as given in patent US20210346259A1, “Oral Care Compositions Comprising Dicarboxylic Acid” (The Procter & Gamble Company, priority 2020, published 2021).

Tests used:
[1] = human, 1 %, pH 2.19
Method: The enamel softening method is used to determine the potential of oral care compositions to damage (or not to damage) dental enamel with repeated exposure.
A core of sound human enamel with a diameter of 3-4 mm was extracted from whole human teeth. The cores were mounted in dental acrylic and the surfaces were ground using 600 grit paper. Increasingly fine lapping papers were then used to polish the surface to a 1μ polish. Samples were sonicated in deionized water for 30 min. Enamel specimens were then rinsed with deionized water and wiped to remove any residual polish. Each enamel specimen was inspected and samples with large cracks or uneven calcification were discarded. […]
The artificial saliva solution of TABLE 6 was prepared on the day before the experiment. Also on the day before the experiment, the Vickers hardness of each enamel specimen was measured using a hardness indenter at three separate locations spread across the enamel surface. A 50 g load was applied for 10 seconds, and the diagonal lengths of the resulting indents were measured using a 20× magnification objective. […]
On the day following the cycling experiment, the post-cycling hardness was obtained for each specimen using a similar procedure to that described for the pre-cycling hardness measurements. […] The average change in specimen hardness with respect to treatment and its standard deviation were then determined. […]

[2] = Slurry pH of enamel softening treatments; format: physicochemical; settings: treatment as used in enamel softening, Study 1
Text: The pH of the oral care compositions as described herein can be from about 4 to about 7, from about 4 to about 6, from about 4.5 to about 6.5, or from about 4.5 to about 5.5. The pH of a mouthrinse solution can be determined as the pH of the neat solution. The pH of a dentifrice composition can be determined as a slurry pH, which is the pH of a mixture of the dentifrice composition and water, such as a 1:4, 1:3, or 1:2 mixture of the dentifrice composition and water.

[3] = Powder Stain Removal Model (PSRM), tea stain + FeCl3; settings: pH 7
Text: The PSRM is a screening technique where hydroxyapatite powder (HAP) is used as a substrate for stain accumulation (see Baig A A; Kozak K M; Cox E R et al; J Clin Dent 2002, 13:19 24). The purpose of this technique was to illustrate and quantify the stain removal properties of chemical agents used in the oral care compositions disclosed herein with respect to pH. Hydroxyapatite powder provides a large surface area to which tea chromogens adsorbed. In addition to the published PSRM a modification of the model was used where tea stain was used in conjunction with Iron Trichloride (FeCl3) to simulate stains that are more resistant to removal. Stains found in the oral cavity commonly contain Fe(III) (Tantbirojn D, Douglas W H et al Eur J Oral Sci 1998; 106,971-976). […] The magnitude of stain removal was quantified by image analysis. […] VWR BDH9234) was added under stirring. Then HAP-powder was added, powder was centrifuged, washed and dried to yield a deeply colored powder. Treatment solutions were prepared for oxalate and pyrophosphate anions. Oxalate solutions (0.34M, 3%) of different pH (4.5, 5.0, 5.5, 7) were obtained by mixing appropriate ratios of potassium oxalate (62.79 g/L Potassium Oxalate Monohydrate in water, pH-7.0) and oxalic acid solution (30.69 g Oxalic Acid/L in water, pH-1.3). Lower concentrations were obtained by further dilution with water. A pyrophosphate solution, equimolar to a 3% Oxalate solution (75.65 g/L Sodium acid pyrophosphate, pH-adjusted with IN NaOH to pH7) was used as comparison. HAP powders were treated with the treatment solutions to investigate their stain removal potential. […] Supernatant was decanted and the pellet was washed twice by adding 25 mL of water, vortexing, centrifuging at 14,000 rpm for 15 mins, and decanting. The twice washed pellet was resuspended in 30 mL water by vortexing for 1 min, then vacuum-filtered (Millipore MF Membrane Filters 8.0 um, 47 mm) to collect the powder. […] Treatments were done in triplicate. A control disk using tea-stained HAP from the same batch treated with water was prepared as well. The color of the laminated samples was measured using a color-calibrated, white-balanced digital camera and RGB values were acquired. […] The light system was equipped with Dedo lights (model number DLH2) equipped with 150 watt, 24V bulbs model number (Xenophot model number HL X64640), positioned about 30 cm apart (measured from the center of the external circular surface of one of the glass lens through which the light exits to the other) and aimed at a 45 degree angle such that the light paths. […] Stain removal was determined as change in L (brightness) vs. untreated stained HAP, calculated as ΔL=(L for treated HAP-L for the untreated stained HAP). […]

[4] = Powder Stain Removal Model (PSRM), tea stain; settings: pH 7
Method: A tea solution was prepared using 8 regular teabags (Lipton Black Tea) in 400 mL boiling water and steeping for 5 min. After letting the tea cool to 50° C. it was filtered through a Nalgene sterile filter (Thermo Scientific Nalgene Rapid flow 75 mm Filter Unit, 0.2SCFA). 10 g Hydroxyapatite Powder (HAP, Bio-Gel HTP-Gel Catalog #130-0421, Bio-Rad Laboratories Hercules, Calif.) was added and the mixture was stirred for 5 min, distributed into 12 50-mL centrifuge tubes and centrifuged for 15 min at 14,000 rpm (Lynx 6000, Thermo Fischer with Lynx F14-14X50CY rotor). Supernatant was decanted, the remaining stained HAP-powder was washed twice with water by adding 25 ml of water, vortexing, centrifuging at 14,000 rpm for 15 mins, and decanting liquid. Centrifuge tubes were placed in a convection oven overnight at 60° C. to dry stained HAP. Once dried, stained HAP was pooled and ground to a fine powder with pestle and mortar and stored in a dry dark place at room temperature.
HAP powders were treated with the treatment solutions to investigate their stain removal potential. Treatment (20 mL of a 1:4 dilution of treatment solutions above) was added to stained HAP powder (200 mg) in a 50 mL centrifuge, vortexed for 1 min, then centrifuged at 14,000 rpm for 15 min. Supernatant was decanted and the pellet was washed twice by adding 25 mL of water, vortexing, centrifuging at 14,000 rpm for 15 mins, and decanting. […]

[5] = 0.250 % Active (equimolar to Oxalate Solution)
[6] = 1.250 % Active (equimolar to Oxalate Solution)
[7] = 2.5200 % Active (equimolar to Oxalate Solution)
[8] = 7.56.00 % Active (equimolar to Oxalate Solution)

Row | Δ SMH (change in surface microhardness) [1] | Slurry pH [2] | Structure (SMILES) | Tea Stain + FeCl3 (ΔL) [3, 5] | Tea Stain + FeCl3 (ΔL) [3, 6] | Tea Stain + FeCl3 (ΔL) [3, 7] | Tea Stain + FeCl3 (ΔL) [3, 8] | Tea Stain (ΔL) [4, 5] | Tea Stain (ΔL) [4, 6] | Tea Stain (ΔL) [4, 7] | Tea Stain (ΔL) [4, 8]
1 | −175.68 | 2.19 | O=C(O)CC(O)(CC(=O)O)C(=O)O [1% Citric Acid, citric acid] |  |  |  |  |  |  |  | 
2 |  |  | O=P([O-])(O)OP(=O)([O-])O.[Na+].[Na+] [Pyrophosphate Solution, Sodium acid pyrophosphate] | −0.97 | 0.02 | 0.77 | 2.88 | 5.16 | 5.97 | 7.88 | 9.85
